Data as given in patent publication US4455419A, “2'-Modified kanamycins and production thereof” (Zaidan Hojin Biseibutsu Kagaku Kenkyu Kai, priority 1981, dated 1984).
≈ marks a conversion by molar mass, not a printed value. Where two headings read alike, the source gives them in different places.

Assays:
Experiment in all cases: Minimum inhibitory concentration, standard serial dilution method
Type in all cases: cell-based
[1] = tested on: Staphylococcus aureus Rosenbach FDA 209-OJC-1; conditions: read-out: Minimum Inhibitory Concentrations
Text: (§1) For comparison purpose, the minimum inhibitory concentrations (mcg/ml) of the parent compound, kanamycin A are also shown in Table II.

[2] = tested on: Pseudomonas aeruginosa E-2 IAM-1007; conditions: read-out: Minimum Inhibitory Concentrations
Text: as §1

[3] = tested on: Providencia morgani Kono; conditions: read-out: Minimum Inhibitory Concentrations
Text: as §1

[4] = tested on: Klebsiella pneumoniae PCI-602; conditions: read-out: Minimum Inhibitory Concentrations
Text: as §1

[5] = tested on: Escherichia coli JR66/W677 (A-20683); conditions: read-out: Minimum Inhibitory Concentrations
Text: as §1

[6] = tested on: Salmonela typhimlium LT-2; conditions: 24 h, read-out: Minimum Inhibitory Concentrations
Text: as §1

[7] = tested on: Serratia marcescens No. 1; conditions: read-out: Minimum Inhibitory Concentrations
Text: as §1

[8] = tested on: Pseudomonas aeruginosa IAM-1007; conditions: read-out: Minimum Inhibitory Concentrations
Text: as §1

[9] = tested on: Escherichia coli No. 29; conditions: read-out: Minimum Inhibitory Concentrations
Text: as §1

[10] = tested on: Staphylococcus epidermidis 109; conditions: read-out: Minimum Inhibitory Concentrations
Text: as §1

[11] = Escherichia coli JR66/W677 (A-20683), nutrient agar, 37° C., 24 hours
[12] = Escherichia coli No. 29, nutrient agar, 37° C., 24 hours
[13] = Staphylococcus aureus, FDA209, 24 h
[14] = Pseudomonas aeruginosa, IAM1007, 24 h
[15] = Klebsiella pneumoniae, PCI602, 24 h
[16] = Serratia marcescens, NO.1, 24 h
[17] = Staphylococcus epidermidis, 109, 24 h

Row | Structure (SMILES) | MIC ([1]; FDA209, Staphylococcus aureus Rosenbach FDA 209-OJC-1, nutrient agar, 37° C., 24 hours) | MIC ([2]; IAM1007, Pseudomonas aeruginosa E-2 IAM-1007, nutrient agar, 37° C., 24 hours) | MIC ([3]; Providencia morgani Kono, nutrient agar, 37° C., 24 hours) | MIC ([4]; PCI602, Klebsiella pneumoniae PCI-602, nutrient agar, 37° C., 24 hours) | MIC [5, 11] | MIC [6] | MIC ([7]; Serratia marcescens No. 1, nutrient agar, 37° C., 24 hours) | MIC ([8]; IAM1007, Pseudomonas aeruginosa IAM-1007, nutrient agar, 37° C., 24 hours) | MIC [9, 12] | MIC ([10]; Staphylococcus epidermidis 109, nutrient agar, 37° C., 24 hours) | MIC [1, 13] | MIC [2, 14] | MIC ([3]; Providencia, 24 h) | MIC [4, 15] | MIC [7, 16] | MIC [8, 14] | MIC ([9]; Escherichia coli, NO.29, 24 h) | MIC [10, 17] | MIC ([5]; Escherichia coli, 24 h)
1 | NC[C@H]1O[C@H](O[C@H]2[C@H](O)[C@@H](O[C@H]3O[C@H](CO)[C@@H](O)[C@H](N)[C@H]3O)[C@H](N)C[C@@H]2N)C[C@@H](O)[C@@H]1O [2'-Deoxykanamycin A, 2'-deoxykanamycin A] | 0.05 µg/mL (≈ 0.107 µM) | 6.25 µg/mL (≈ 13.3 µM) | 0.78 µg/mL (≈ 1.66 µM) | 0.78 µg/mL (≈ 1.66 µM) | 50 µg/mL (≈ 107 µM) | 0.78 µg/mL (≈ 1.66 µM) | 0.78 µg/mL (≈ 1.66 µM) | 1.56 µg/mL (≈ 3.33 µM) | 0.39 µg/mL (≈ 0.832 µM) | 0.2 µg/mL (≈ 0.427 µM) | – | – | – | – | – | – | – | – | –
2 | NC[C@H]1O[C@H](O[C@H]2[C@H](O)[C@@H](O[C@H]3O[C@H](CO)[C@@H](O)[C@H](N)[C@H]3O)[C@H](N)C[C@@H]2N)[C@@H](O)[C@@H](O)[C@@H]1O [2'-Epikanamycin A, 2'-epikanamycin A] | – | – | – | – | > 100 µg/mL | 6.25 µg/mL (≈ 12.9 µM) | – | – | – | – | 0.39 µg/mL (≈ 0.805 µM) | > 100 µg/mL | 6.25 µg/mL (≈ 12.9 µM) | 6.25 µg/mL (≈ 12.9 µM) | 12.5 µg/mL (≈ 25.8 µM) | 50 µg/mL (≈ 103 µM) | 6.25 µg/mL (≈ 12.9 µM) | 25 µg/mL (≈ 51.6 µM) | –
3 | NC[C@H]1O[C@H](O[C@H]2[C@H](O)[C@@H](O[C@H]3O[C@H](CO)[C@@H](O)[C@H](N)[C@H]3O)[C@H](N)C[C@@H]2N)[C@@H](N)[C@@H](O)[C@@H]1O [2'-Epikanamycin B, 2'-epikanamycin B] | – | – | – | – | – | 50 µg/mL (≈ 103 µM) | – | – | – | – | 1.56 µg/mL (≈ 3.23 µM) | > 100 µg/mL | 50 µg/mL (≈ 103 µM) | 50 µg/mL (≈ 103 µM) | 100 µg/mL (≈ 207 µM) | > 100 µg/mL | 50 µg/mL (≈ 103 µM) | 50 µg/mL (≈ 103 µM) | > 100 µg/mL
4 | NC[C@H]1O[C@H](O[C@H]2[C@H](O)[C@@H](O[C@H]3O[C@H](CO)[C@@H](O)[C@H](N)[C@H]3O)[C@H](N)C[C@@H]2N)[C@H](O)[C@@H](O)[C@@H]1O [Kanamycin A, kanamycin A, reference compound] | – | – | – | – | > 100 µg/mL | 1.56 µg/mL (≈ 3.22 µM) | – | – | 0.78 µg/mL (≈ 1.61 µM) | – | 0.1 µg/mL (≈ 0.206 µM) | 50 µg/mL (≈ 103 µM) | 3.13 µg/mL (≈ 6.46 µM) | 1.56 µg/mL (≈ 3.22 µM) | 3.13 µg/mL (≈ 6.46 µM) | 12.5 µg/mL (≈ 25.8 µM) | – | 3.13 µg/mL (≈ 6.46 µM) | –
